From patent US8044211B2 (Chroma Therapeutics Ltd., priority 2006, dated 2011)
Where two headings read alike, the source gives them in different places.

How the values were obtained:
[1] = target: T1, p38 MAP Kinase a (Homo sapiens, UniProt Q16539); test: p38 MAP Kinase activity, radiometric filter-binding assay (Upstate); type: biochemical; conditions: IC50 range; ATP at or close to Km; read-out: Inhibitor activity versus p38 MAPKa
T1 construct: purchased Upstate (Dundee UK)
Outline: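 Human p38 MAP kinase α (5-10 mU) with 0.33 mg/mL myelin basic protein, 25 mM Tris pH 7.5, 0.002 mM EGTA, 10 mM Mg acetate and [γ-33P]ATP at or near Km; 40 min at RT. Phosphoric acid stop, P30 filter binding and scintillation counting; IC50 from 9-step ⅓-log dilutions from 10 μM top concentration, duplicates.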

[2] = tested on: THP-1 TNFα release; test: LPS-stimulation of THP-1 cells, TNF-α by ELISA; type: cell-based; conditions: IC50 range, LPS 1 μg/ml, 6 hrs, read-out: Inhibitor activity versus THP-1 TNFα release
Description: THP-1 cells were plated in 100 μl at a density of 4×10^4 cells/well in V-bottomed 96 well tissue culture treated plates and incubated at 37° C. in 5% CO2 for 16 hrs. 2 hrs after the addition of the inhibitor in […], of tissue culture media, the cells were stimulated with LPS (E. coli strain 005:B5, Sigma) at a final concentration of 1 μg/ml and incubated at 37° C. in 5% CO2 for 6 hrs. TNF-α levels were measured from cell-free supernatants by sandwich ELISA (R&D Systems #QTA00B).

[3] = tested on: human whole blood TNFα release; test: LPS-stimulation of human whole blood, TNF-α by ELISA; type: cell-based; conditions: IC50 range, LPS 100 ng/ml, 6 hrs, read-out: Inhibitor activity versus human whole blood TNFα release
Description: Whole blood was taken by venous puncture using heparinised vacutainers (Becton Dickinson) and diluted in an equal volume of RPMI 1640 tissue culture media (Sigma). 100 μl was plated in V-bottomed 96 well tissue culture treated plates. 2 hrs after the addition of the inhibitor in 100 μl of RPMI 1640 media, the blood was stimulated with LPS (E. coli strain 005:B5, Sigma) at a final concentration of 100 ng/ml and incubated at 37° C. in 5% CO2 for 6 hrs. TNF-α levels were measured from cell-free supernatants by sandwich ELISA (R&D Systems #QTA00B)

T1 sequence (Q16539 whole entry): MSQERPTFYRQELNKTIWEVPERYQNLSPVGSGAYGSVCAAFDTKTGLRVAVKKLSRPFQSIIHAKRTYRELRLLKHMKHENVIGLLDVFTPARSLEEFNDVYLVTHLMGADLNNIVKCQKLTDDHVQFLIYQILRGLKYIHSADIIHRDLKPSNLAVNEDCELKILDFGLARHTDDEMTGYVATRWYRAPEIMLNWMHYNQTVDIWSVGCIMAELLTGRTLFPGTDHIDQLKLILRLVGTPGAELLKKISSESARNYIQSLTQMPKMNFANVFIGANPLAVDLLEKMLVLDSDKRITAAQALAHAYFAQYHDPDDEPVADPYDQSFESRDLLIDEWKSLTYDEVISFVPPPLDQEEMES

Row | Compound | IC50 [1] [nM] | IC50 ([2]; Homo sapiens, THP-1) [nM] | IC50 [3] [nM] | IC50 [2] [nM]
1 | CC(C)C[C@H](NCc1ccc(-n2c(N)c(C(=O)c3ccc(F)cc3)ccc2=O)cc1)C(=O)OC1CCCC1 [Example 3, Cyclopentyl(S)-2-{4-[6-Amino-5-(4-fluorobenzoyl)-2-oxo-2H-pyridin-1-yl]benzylamino}-4-methylpentanoate] | 100 to 1000 | > 1000 | > 1000 | 
2 | CC(C)C[C@H](NCc1ccc(-n2c(N)c(C(=O)c3ccc(F)cc3F)ccc2=O)cc1)C(=O)OC1CCCC1 [Example 9, Cyclopentyl(S)-2-{4-[6-Amino-5-(2,4-difluorobenzoyl)-2-oxo-2H-pyridin-1-yl]benzylamino}-4-methylpentanoate] | < 100 | 100 to 1000 | > 1000 | 
3 | CC(C)C[C@H](NCc1cc(F)c(-n2c(N)c(C(=O)c3ccc(F)cc3F)ccc2=O)c(F)c1)C(=O)OC1CCCC1 [Example 11] | < 100 | 100 to 1000 | > 1000 | 
4 | CC(C)C[C@H](NCCCOc1cc(F)c(-n2c(N)c(C(=O)c3ccc(F)cc3)ccc2=O)c(F)c1)C(=O)OC1CCCC1 [Example 15] | < 100 | < 100 | > 1000 | 
5 | Cc1cc(C(=O)c2ccc(=O)n(-c3c(F)cc(OCCCN[C@@H](CC(C)C)C(=O)OC4CCCC4)cc3F)c2N)ccc1F [Example 19, Cyclopentyl(S)-2-(3-{4-[6-Amino-5-(4-fluoro-3-methylbenzoyl)-2-oxo-2H-pyridin-1-yl]-3,5-difluorophenoxy}propylamino)-4-methylpentanoate] | < 100 | < 100 | > 1000 | 
6 | Nc1c(C(=O)c2ccc(F)cc2F)ccc(=O)n1-c1c(F)cc(OCCCN[C@H](C(=O)OC2CCCC2)c2ccccc2)cc1F [Example 20, Cyclopentyl(S)-(3-{4-[6-Amino-5-(2,4-difluorobenzoyl)-2-oxo-2H-pyridin-1-yl]-3,5-difluorophenoxy}propylamino)phenyl acetate] | < 100 | < 100 | 100 to 1000 | 
7 | Nc1c(C(=O)c2ccc(F)cc2F)ccc(=O)n1-c1c(F)cc(OCCCN[C@@H](Cc2ccccc2)C(=O)OC2CCCC2)cc1F [Example 21, Cyclopentyl(S)-2-(3-{4-[6-Amino-5-(2,4-difluorobenzoyl)-2-oxo-2H-pyridin-1-yl]-3,5-difluorophenoxy}-propylamino)-3-phenyl propionate] | < 100 | < 100 | > 1000 | 
8 | CC(C)C[C@H](NCCCOc1cc(F)c(-n2c(N)c(C(=O)c3ccc(F)cc3F)ccc2=O)c(F)c1)C(=O)OC1CCCC1 [Example 22, Cyclopentyl(S)-2-(3-{4-[6-Amino-5-(2,4-difluorobenzoyl)-2-oxo-2H-pyridin-1-yl]-3,5-difluorophenoxy}propylamino)-4-methyl pentanoate] | < 100 | < 100 | 100 to 1000 | 
9 | CC(C)C[C@H](NCCCOc1ccc(-n2c(N)c(C(=O)c3ccc(F)cc3)ccc2=O)cc1)C(=O)OC1CCCC1 [Example 25, Cyclopentyl(S)-2-(3-{4-[6-Amino-5-(4-fluorobenzoyl)-2-oxo-2H-pyridin-1-yl]phenoxy}propylamino)-4-methylpentanoate] | < 100 | 100 to 1000 | > 1000 | 
10 | Cc1cc(C(=O)c2ccc(=O)n(-c3ccc(OCCCN[C@@H](CC(C)C)C(=O)OC4CCCC4)cc3)c2N)ccc1F [Example 27, Cyclopentyl(S)-2-(3-{4-[6-Amino-5-(4-fluoro-3-methylbenzoyl)-2-oxo-2H-pyridin-1-yl]phenoxy}propylamino)-4-methylpentanoate] | 100 to 1000 | 100 to 1000 | > 1000 | 
11 | CC(C)(C)OC(=O)[C@@H](NCCCOc1cc(F)c(-n2c(N)c(C(=O)c3ccc(F)cc3F)ccc2=O)c(F)c1)c1ccccc1 [Example 36, tert-Butyl(S)-(3-{4-[6-Amino-5-(2,4-difluorobenzoyl)-2-oxo-2H-pyridin-1-yl]-3,5-difluorophenoxy}propylamino)phenyl acetate] | < 100 | < 100 | > 1000 | 
12 | CC(C)C[C@H](NCCCOc1cc(F)c(-n2c(N)c(C(=O)c3ccc(F)cc3F)ccc2=O)c(F)c1)C(=O)OC(C)(C)C [Example 38, tert-Butyl(S)-2-(3-{4-[6-Amino-5-(2,4-difluorobenzoyl)-2-oxo-2H-pyridin-1-yl]-3,5-difluorophenoxy}propylamino)-4-methyl pentanoate] | < 100 | < 100 | > 1000 | 
13 | Nc1c(C(=O)c2ccc(F)cc2F)ccc(=O)n1-c1c(F)cc(OCCCN[C@@H](C(=O)OC2Cc3ccccc3C2)c2ccccc2)cc1F [Example 41, 2,3-dihydro-1H-inden-2-yl (2R)-[(3-{4-[6-amino-5-(2,4-difluorobenzoyl)-2-oxopyridin-1(2H)-yl]-3,5-difluorophenoxy}propyl)amino](phenyl)acetate] | 100 to 1000 | < 100 | > 1000 | 
14 | Nc1c(C(=O)c2ccc(F)cc2F)ccc(=O)n1-c1c(F)cc(OCCCN[C@@H](C(=O)OC2CCCC2)c2ccccc2)cc1F [Example 42, Cyclopentyl (2R)-[(3-{4-[6-amino-5-(2,4-difluorobenzoyl)-2-oxopyridin-1 (2H)-yl]-3,5-difluorophenoxy}propyl)amino](phenyl)acetate] | < 100 | < 100 | 100 to 1000 | 
15 | CC(C)C[C@H](NCCCOc1cc(F)c(-n2c(N)c(C(=O)c3ccc(F)cc3F)ccc2=O)c(F)c1)C(=O)OCCN(C)C [Example 46, 2-(Dimethylamino)ethyl N-(3-{4-[6-amino-5-(2,4-difluorobenzoyl)-2-oxopyridin-1(2H)-yl]-3,5-difluorophenoxy}propyl)-L-leucinate] | 100 to 1000 | < 100 | 100 to 1000 | 
16 | CC(C)C[C@H](NCCCOc1cc(F)c(-n2c(N)c(C(=O)c3ccc(F)cc3F)ccc2=O)c(F)c1)C(=O)OCCN1CCOCC1 [Example 47, 2-Morpholin-4-ylethyl N-(3-{4-[6-amino-5-(2,4-difluorobenzoyl)-2-oxopyridin-1(2H)-yl]-3,5-difluorophenoxy}propyl)-L-leucinate] | < 100 | < 100 | 100 to 1000 | 
17 | Nc1c(C(=O)c2ccc(F)cc2F)ccc(=O)n1-c1c(F)cc(OCCCN[C@H](C(=O)OC2CCCC2)C2CCCCC2)cc1F [Example 48, Cyclopentyl(2S)-[(3-{4-[6-amino-5-(2,4-difluorobenzoyl)-2-oxopyridin-1(2H)-yl]-3,5-difluorophenoxy}propyl)amino](cyclohexyl)acetate] | < 100 | < 100 | > 1000 | 
18 | CC(C)(C)OC(=O)[C@@H](NCCCOc1cc(F)c(-n2c(N)c(C(=O)c3ccc(F)cc3F)ccc2=O)c(F)c1)C1CCCCC1 [Example 49, tert-Butyl (2S)-[(3-{4-[6-amino-5-(2,4-difluorobenzoyl)-2-oxopyridin-1(2H)-yl]-3,5-difluorophenoxy}propyl)amino](cyclohexyl)acetate] | < 100 | 100 to 1000 | > 1000 | 
19 | NCC[C@H](NCCCOc1cc(F)c(-n2c(N)c(C(=O)c3ccc(F)cc3F)ccc2=O)c(F)c1)C(=O)OC1CCCC1 [Example 52, Cyclopentyl(2S)-4-amino-2-[(3-{4-[6-amino-5-(2,4-difluorobenzoyl)-2-oxopyridin-1(2H)-yl]-3,5-difluorophenoxy}propyl)amino]butanoate] | < 100 | < 100 | 100 to 1000 | 
20 | CC(C)C[C@H](NCCCCCOc1cc(F)c(-n2c(N)c(C(=O)c3ccc(F)cc3F)ccc2=O)c(F)c1)C(=O)OC1CCCC1 [Example 53, Cyclopentyl N-(5-{4-[6-amino-5-(2,4-difluorobenzoyl)-2-oxopyridin-1(2H)-yl]-3,5-difluorophenoxy}pentyl)-L-leucinate] | < 100 | < 100 | 100 to 1000 | 
21 | CC(C)C[C@H](NCCc1ccc(-n2c(N)c(C(=O)c3ccc(F)cc3)ccc2=O)cc1)C(=O)OC1CCCC1 [Example 57, Cyclopentyl N-[2-(4-{6-amino-5-[(4-fluorophenyl)carbonyl]-2-oxopyridin-1(2H)-yl}phenyl)ethyl]-L-leucinate] | 100 to 1000 | < 100 | 100 to 1000 | 
22 | CC(C)C[C@H](NCCc1ccc(-n2c(N)c(C(=O)c3ccc(F)cc3)ccc2=O)cc1)C(=O)OC(C)(C)C [Example 58, tert-Butyl N-[2-(4-{6-amino-5-[(4-fluorophenyl)carbonyl]-2-oxopyridin-1(2H)-yl}phenyl)ethyl]-L-leucinate] | 100 to 1000 | < 100 | 100 to 1000 | 
23 | tert-Butyl(S)-(3-{4-[6-Amino-5-(4-difluoro benzoyl)-2-oxo-2H-pyridin-1-yl]-3,5-difluorophenoxy}propylamino)phenyl acetate [Example 45] | < 100 |  |  | < 100
